In brackets after ≈: the same amount, converted by molar mass. Counter-ions that a name gives are not always drawn. Where no end group is shown, it is not given here.
Columns and labels:
C. albicans = conditions: topical 50 μM twice a day
Experimental: (§1) The scalded mice models combined with SSTIs by MRSA or C. albicans were constructed. Fifty normal male Kunming mice (5–6 weeks old) weighing ~25 g were anesthetized by isoflurane using a small animal anesthesia machine (R640, RWD Life Science, China). After skin preparation and disinfection, a custom-made circular iron (diameter: 8 mm) (shown in Figure S4) was applied to both sides of the spine of the mice for 10 s at 300 °C, resulting in four scalded wounds. Mice were injected subcutaneously with 5 mg/kg meloxicam (Aladdin, Shanghai, China) for four days (once per day) after scalding for pain relief. Two days after scalding, the skin tissues of the scalded areas were removed carefully, and about 30 μL of 1 × 10^7 CFU/mL of MRSA or C. albicans was applied evenly onto the surfaces of the wounds. The mice were returned to the original feeding environment after the microbial fluid was completely absorbed (1.5–2 h), with two mice per cage. Corncob granules with SPF level were used as padding.
(§2) Two days after microbe inoculating, the scalded wounds of each mouse were divided into four groups randomly. […] The mice were returned to the original feeding environment after the solutions were completely absorbed. The treatment lasted for 12–16 days. Photographs of the wound areas were taken every two days using an iPhone 11 and the wound areas were measured every two days using Image J software (152-win-java8, Bethesda, MD, USA). The average wound areas on day two were used as the reference (100% unhealed) to normalized wound areas. Skin tissues of the wound areas were removed carefully at different time points (n = 5 for each time point) and weighted in a sterile environment. For MRSA infection, 10 mg of the wound tissues was dispersed into 1000 μL of sterile saline solution and the tissue solution was ground into suspension in a tissuelyser (Tissuelyser LT, Servicebio). Then, the tissue suspension was diluted with sterile saline solution 10 times and plated on MHA with a sample volume of 50 μL. For C. albicans infection, 10 mg of the wound tissues was dispersed into 200 μL of sterile saline solution and the tissue solution was also ground into suspension in the tissuelyser. The tissue suspension was then plated on PDA directly with a sample volume of 20 μL. After culturing overnight, the colonies were counted using Image J software or human eyes. In addition, the skin tissues of the wound area were removed carefully at different time points and dispersed into a 4% paraformaldehyde solution for further use.
(§3) The hematoxylin and eosin staining in this study was carried out by Servicebio (Wuhan, China). Briefly, the obtained skin tissues were soaked in 4% paraformaldehyde solution (Beyotime, China) and fixed for more than 24 h. Then, they were dehydrated and embedded with paraffin, and tissue sections having thicknesses of 4 μm were prepared. After deparaffinization and rehydration, hematoxylin and eosin staining was performed.

MRSA = test system: MRSA
Experimental: as §1, §2, §3

[1] = test system: Candida albicans (C. albicans, ATCC90028); format: cell-based; conditions: 1 × 10^6 CFU/mL, PDB, 12 h, peptide 0-20 μM, absorbance at 600 nm, n = 5
Text: (§4) Pseudomonas aeruginosa (P. aeruginosa, ATCC27853), Methicillin-Resistant Staphylococcus aureus (MRSA, 2104270609, clinically isolated strain), Escherichia coli (E. coli, ATCC25922), Klebsiella pneumoniae (K. pneumoniae, ATCC700603), Enterococcus faecalis (E. faecalis, ATCC29212), Candida krusei (C. krusei, ATCC6258), Candida albicans (C. albicans, ATCC90028), and Candida glabrata (C. glabrata, ATCCMYA-2950) were obtained from the First Affiliated Hospital of Xi’an Jiaotong University. Bacterial strains were cultured in MHA or MHB. Fungal strains were cultured in PDA or PDB.
(§5) Strains were incubated in MHB or PDB. After growing for 12–16 h at 37 °C, 200 rpm, 100 μL of 1 × 10^6 CFU/mL of the strains was seeded into 96-well plates and incubated with fresh culture medium containing various antimicrobial peptides (peptide concentration: 0, 0.5, 1.0, 2.0, 3.0, 5.0, 10, 15 or 20 μM) for 12 h. Each concentration was repeated five times. Absorbance at 600 nm was measured using the Multilabel Reader Varioskan Flash (Thermo Fisher). […] (1)

[2] = test system: Candida glabrata (C. glabrata, ATCCMYA-2950); format: cell-based; conditions: 1 × 10^6 CFU/mL, PDB, 12 h, peptide 0-20 μM, absorbance at 600 nm, n = 5
Text: as §4, §5

[3] = test system: Candida krusei (C. krusei, ATCC6258); format: cell-based; conditions: 12 h, absorbance at 600 nm, n = 5
Text: as §4, §5

[4] = test system: Enterococcus faecalis (E. faecalis, ATCC29212); format: cell-based; conditions: 1 × 10^6 CFU/mL, MHB, 12 h, peptide 0-20 μM, absorbance at 600 nm, n = 5
Text: as §4, §5

[5] = test system: Escherichia coli (E. coli, ATCC25922); format: cell-based; conditions: 1 × 10^6 CFU/mL, MHB, 12 h, peptide 0-20 μM, absorbance at 600 nm, n = 5
Text: as §4, §5

[6] = test system: Klebsiella pneumoniae (K. pneumoniae, ATCC700603); format: cell-based; conditions: 1 × 10^6 CFU/mL, MHB, 12 h, peptide 0-20 μM, absorbance at 600 nm, n = 5
Text: as §4, §5

[7] = test system: Methicillin-Resistant Staphylococcus aureus (MRSA, 2104270609, clinically isolated strain); format: cell-based; conditions: 1 × 10^6 CFU/mL, MHB, 12 h, peptide 0-20 μM, absorbance at 600 nm, n = 5
Text: as §4, §5

[8] = test system: Pseudomonas aeruginosa (P. aeruginosa, ATCC27853); format: cell-based; conditions: 1 × 10^6 CFU/mL, MHB, 12 h, peptide 0-20 μM, absorbance at 600 nm, n = 5
Text: as §4, §5

[9] = Peptide stability in water by HPLC; format: physicochemical; conditions: 10 mg/mL in water, 37 °C, 200 rpm, 0 and 48 h, HPLC 220 nm, repeated three times
Experimental: (§6) Antimicrobial peptides were dissolved in water or rat serum with a concentration of 10 mg/mL. The solution was incubated at 37 °C, 200 rpm for different time periods, and diluted 50 times for the HPLC analysis. In water, the incubation time was 0 h and 48 h. In rat serum, the incubation time was 0, 2, 4, 7, 12, 24 or 48 h. Each incubation condition was repeated three times. HPLC was conducted on a Waters HPLC system, which consisted of a 2996 photodiode array detector, a 2695 separation module and a temperature control column oven. Column: Sinochrom ODS-BP, 5 μm, 4.6 × 250 mm (Dalian Elite Analytical Instruments Co., Ltd., Dalian, China). Mobile phase: A: 100% ACN + 0.1% TFA; B: 100% Water + 0.1% TFA. Gradient elution: 0–20 min, 95% B–100% A; 20–25 min, 100% A. Detection wavelength: 220 nm. Flow rate: 1 mL/min. Sample volume: 50 μL (0.2 mg/mL).

[10] = Peptide stability in rat serum by HPLC; format: in vitro ADME; conditions: 10 mg/mL in rat serum, 37 °C, 200 rpm, repeated three times
Experimental: as §6

[11] = unstable in serum; cited from earlier work
Text: The venom of scorpions, which has been proven to kill Gram-negative and Gram-positive bacteria, fungi, viruses and even tumor cells, are a rich source of antimicrobial peptides. Androctonus amoreuxi Antimicrobial Peptide 1 (AamAP1), identified from the venom-derived cDNA library of the North African scorpion, Androctonus amoeruxi, is a new type of host defense peptide. With broad-spectrum antimicrobial properties, it has been posited that AamAP1 kills bacteria cells through membrane disruption, which will not induce bacterial resistance. However, there are still some disadvantages in us ...

[12] = C. albicans-infected scald wounds, mice, n = 10
[13] = colony count of wound tissue on PDA, n = 5

In the case of OC(Cn1cncn1)(Cn1cncn1)c1ccc(F)cc1F [FCZ, fluconazole], the “area of the wounds healed on day 10” value (C. albicans; [12]) is reported as “more than 95%”, the “unhealed wounds on day 12” value (C. albicans; [12]) is reported as “completely disappeared” and the “C. albicans in wound tissue on day 12” value (C. albicans; [13]) is reported as “no C. albicans detected”. The “C. albicans suppressed (inhibition rate) at day eight compared with saline solution groups” value (C. albicans; [13]) was ~ 98%.

In the case of CCC[C@@H]1C[C@@H](C(=O)N[C@@H]([C@H]2O[C@H](SC)[C@H](O)[C@@H](O)[C@H]2O)[C@H](C)Cl)N(C)C1 [CDHC, clindamycin hydrochloride], the “wound area healed on day eight” value (MRSA; MRSA-infected scald wounds, mice, topical 50 μM twice a day, day 2 area = 100% unhealed, n = 10) is reported as “more than 45%” and the “unhealed wounds on day 16” value (MRSA; MRSA-infected scald wounds, mice, topical 50 μM twice a day, n = 10) is reported as “completely disappeared”.

In the case of CC[C@H](C)[C@H](NC(=O)[C@H](C)NC(=O)[C@H](Cc1c[nH]cn1)NC(=O)[C@@H]1CCCN1C(=O)[C@@H](NC(=O)[C@H](CC(C)C)NC(=O)[C@H](CO)NC(=O)[C@H](Cc1ccccc1)NC(=O)[C@H](CC(C)C)NC(=O)[C@@H](N)Cc1ccccc1)[C@@H](C)CC)C(=O)NCC(=O)NCC(=O)N[C@@H](CC(C)C)C(=O)N[C@H](C(=O)N[C@@H](CO)C(=O)N[C@@H](C)C(=O)N[C@@H](Cc1ccccc1)C(=O)N[C@@H](CCCCN)C(=O)O)[C@@H](C)CC [AamAP1, Androctonus amoreuxi Antimicrobial Peptide 1, reference compound], the “Minimum inhibitory concentration (MIC), C. albicans” value [1] is reported as > 20 µM, the “Minimum inhibitory concentration (MIC), C. glabrata” value [2] is reported as > 20 µM and the “Minimum inhibitory concentration (MIC), C. krusei” value ([3]; 1 × 10^6 CFU/mL, PDB, peptide 0-20 μM) is reported as 20 µM (≈ 38.6 µg/mL). For the same molecule, the “inhibition of C. krusei” value ([3]; within 0-20 μM) was 90%, the “Minimum inhibitory concentration (MIC), E. faecalis” value [4] was > 20 µM and the “Minimum inhibitory concentration (MIC), E. coli” value [5] was > 20 µM. The “Minimum inhibitory concentration (MIC), K. pneumoniae” value [6] was > 20 µM, the “Minimum inhibitory concentration (MIC), MRSA” value [7] was > 20 µM and the “Minimum inhibitory concentration (MIC), P. aeruginosa” value [8] was > 20 µM. For the same molecule, the “time for which structural stability was retained in water” value [9] was ≥ 48 h, the metabolised at 7 h, 10 mg/mL ([10]; 7 h, HPLC peak area 220 nm, read-out: peptide degraded after seven hours of co-incubation with rat serum) was > 65% and the “change of HPLC peak after incubation in rat serum for two hours” value ([10]; two hours, HPLC 220 nm) was “position of its chromatographic peak moved backward”. The “MRSA suppressed (inhibition rate) at day eight compared with saline solution groups” value (MRSA; mouse, in vivo, 2 h, 50 μM) was “more than 90%” and the predicted half-life [11] was “less than two hours”.

In the case of FLFKLIPKAIKKLISKFK [AamAP1-Lysine], the predicted half-life [11] is listed as “less than two hours”.

Reference: PMC9503518, “Antibacterial and Antifungal Properties of a Novel Antimicrobial Peptide GK-19 and Its Application in Skin and Soft Tissue Infections Induced by MRSA or Candida albicans” (Pharmaceutics, 2022)
